Results taken from article PMC11440035, “Interaction of myricetin, ampelopsin (dihydromyricetin), and their sulfate metabolites with serum albumin, cytochrome P450 (CYP2C9, 2C19, and 3A4) enzymes, and organic anion‐transporting polypeptides (OATP1B1 and OATP2B1)” (Pharmacology Research & Perspectives, 2024).

Key:
OATP1B1 = biological target: T1, OATP1B1 (Homo sapiens, UniProt Q9Y6L6); test: Uptake of flavonoids by A431-OATP1B1 versus mock cells (APB fluorescence); type: cell-based; conditions: for cellular flavonoid level in OATP1B1‐overexpressing versus mock control cells: 10 μM flavonoid, 15 min, 37°C; for substrate of OATP1B1: conclusion from uptake studies
T1 construct: expressed in transfected cells; host or cells: A431
T1 sequence (Q9Y6L6 1-691): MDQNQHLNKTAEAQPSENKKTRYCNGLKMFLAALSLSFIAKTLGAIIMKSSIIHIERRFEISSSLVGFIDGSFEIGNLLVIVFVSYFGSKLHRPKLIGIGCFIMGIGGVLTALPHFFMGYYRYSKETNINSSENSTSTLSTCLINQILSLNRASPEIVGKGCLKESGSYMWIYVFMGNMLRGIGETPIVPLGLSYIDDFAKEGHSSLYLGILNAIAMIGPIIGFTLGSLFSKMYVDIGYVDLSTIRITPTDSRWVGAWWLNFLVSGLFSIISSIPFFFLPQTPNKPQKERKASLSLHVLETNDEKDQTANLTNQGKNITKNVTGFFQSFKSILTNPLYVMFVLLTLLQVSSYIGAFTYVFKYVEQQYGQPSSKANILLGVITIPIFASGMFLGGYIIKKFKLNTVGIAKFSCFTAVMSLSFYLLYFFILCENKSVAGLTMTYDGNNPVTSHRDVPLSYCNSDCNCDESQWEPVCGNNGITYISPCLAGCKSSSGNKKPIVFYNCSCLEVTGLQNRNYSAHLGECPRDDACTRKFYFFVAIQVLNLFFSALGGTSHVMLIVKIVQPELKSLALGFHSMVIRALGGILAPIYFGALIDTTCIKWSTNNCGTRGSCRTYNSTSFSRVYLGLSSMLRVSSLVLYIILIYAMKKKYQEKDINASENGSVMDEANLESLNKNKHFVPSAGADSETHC
Procedure: Direct uptake of AMP, MYR, and their sulfate metabolites were examined in A431 cells overexpressing OATP1B1 or OATP2B1, and in their mock‐transfected controls using APB as a fluorescence enhancer. One day before the uptake measurements, the cells were seeded onto 96‐well plates at a density of 80 000 cells/well in DMEM (200 μL). The following day, the cell culture medium was removed, and the cells were rinsed thrice with PBS (200 μL). Thereafter, the cells were preincubated with HBSS (50 μL) for 5 min at 37°C. The uptake reaction was initiated by the addition of a further 50 μL of HBSS containing AMP, MYR, or their sulfate conjugates (10 μM). After incubating for 15 min at 37°C, the reaction was stopped by removing the supernatant and rinsing the cells three times with ice‐cold PBS. Then PBS buffer (200 μL) containing APB (250 μg/mL) and BSA (1 mg/mL) was added to each well.[35] The fluorescence was read using an Enspire plate reader using the wavelengths listed in Section 2.7.
The concentration‐dependent uptake of M3′S was also tested under the same conditions, except the cells were incubated with 0–10 μM M3′S for 2 min (OATP1B1) or 5 min (OATP2B1).
To test the effect of BSP (a known inhibitor of OATPs[44]) on the cellular uptake of M3′S, cells were preincubated with HBSS buffer (50 μL) with or without BSP (20 μM) for 5 min at 37°C. Thereafter, we added 50 μL of HBSS containing M3′S (final concentration: 2 μM), and cells were further incubated at 37°C for 2 min (OATP1B1) or 5 min (OATP2B1). The reaction was stopped by removing the supernatant. After washing the cells with ice‐cold PBS, a PBS buffer with APB/BSA was added. Fluorescence was determined by applying an Enspire plate reader at excitation/emission wavelengths of 480/540 nm.

[1] = system: T2, human serum albumin (HSA); test: Fluorescence quenching of HSA by flavonoids (Stern–Volmer and modified Stern–Volmer); type: binding; conditions: for albumin‐bound fraction: estimated from K, 1:1 stoichiometry, 1 μM flavonoid, 600 μM HSA (≈ 40 g/L)
T2 construct: purchased Merck (Darmstadt, Germany) A1653
Procedure: Fluorescence spectroscopic measurements were performed in phosphate‐buffered saline (PBS, pH 7.4) at room temperature, using a Hitachi F‐4500 spectrofluorometer (Tokyo, Japan). Increasing amounts of flavonoids (final concentrations: 0, 1, 2, 3, 4, 5, and 6 μM) were added to HSA (2 μM), after which fluorescence emission spectra were collected (λ ex = 295 nm). UV–Vis spectra of MYR, M3′S, AMP, and A4′S were also recorded, and their inner‐filter effects were corrected as it has been reported.[37], [38] Flavonoid–HSA interactions were evaluated based on the graphical application of the Stern–Volmer equation[18], [39]: (1) I0/I=1+KSV×Q where K SV is the Stern–Volmer quenching constant, I 0 denotes the emission intensity of HSA alone at 340 nm, I marks the emission signal of albumin at 340 nm in the presence of flavonoids, while [Q] is the molar concentration of the quencher. Thereafter, binding constants (K) of the formed complexes were determined based on the modified Stern–Volmer equation[39], [40]: (2) I0/I0−I=1/fa×K×1/Q+1/fa where f a is the fraction of the accessible fluorophore.
Using the binding/association constants and assuming 1:1 stoichiometry of complex formation, we estimated the bound fractions of M3′S and A4′S in the circulation based on the following equation[41]: (3) K=FH/F×HSA where [F], [HSA], and [FH] are the molar concentrations of the unbound free flavonoid, the unbound free HSA, and the flavonoid–HSA complex, respectively. In these calculations, we hypothesized the presence of 1.0 μM levels of M3′S or A4′S in the presence of 600 μM (≈ 40 g/L) of HSA.

Compound | concentration‐dependent uptake in OATP1B1‐overexpressing cells (OATP1B1; 0–10 μM, 2 min) | cellular flavonoid level in OATP1B1‐overexpressing versus mock control cells (OATP1B1) | substrate of OATP1B1 (OATP1B1) | albumin‐bound fraction [1] | binding constant (K) of flavonoid–HSA complex ([1]; modified Stern–Volmer equation, HSA 2 μM, flavonoid 0–6 μM, PBS pH 7.4, λex 295 nm, λem 340 nm)
O=c1c(O)c(-c2cc(O)c(O)c(OS(=O)(=O)O)c2)oc2cc(O)cc(O)c12 [M3′S, myricetin‐3′‐O‐sulfate] | saturable uptake | more than two‐fold | substrate | exceeds 99% | –
O=c1c(O)c(-c2cc(O)c(O)c(O)c2)oc2cc(O)cc(O)c12 [MYR, myricetin] | – | did not show statistically significant differences | not substrates | – | –
O=C1c2c(O)cc(O)cc2O[C@H](c2cc(O)c(O)c(O)c2)[C@H]1O [AMP, ampelopsin] | – | did not show statistically significant differences | not substrates | – | 5.5 × 10^4 L/mol and ≈ 10^4 L/mol
O=C1c2c(O)cc(O)cc2OC(c2cc(O)c(OS(=O)(=O)O)c(O)c2)C1O (stereo not drawn) [A4′S, ampelopsin‐4′‐O‐sulfate] | – | did not show statistically significant differences | not substrates | ~94% | –
